Measured values reported in patent publication EP2745708A1, “Antidepressant effect of ß-hydroxy-ß-methylbutyrate” (Abbott Laboratories, Inc., priority 2012, dated 2014).

System: rats
Assay: Forced swimming test (FST) in rats
Type: in vivo
Settings: forced swim test, oral 250 mg/kg or 500 mg/kg body weight after pre-swim and four hours and one hour prior to 5 minute test swim, two independent experiments
Procedure: The antidepressant effect of HMB was evaluated using the forced swimming test (FST) using the procedure described by Porsolt et al. (Eur. J. Pharmacol. 47(4). 379-91 (1978)). To begin the experiment, rats were individually placed inside vertical cylinders (height 40 cm; diameter 21.5 cm) containing 30 cm of water at 35 °C for 15 minutes (i.e., "pre-swim). Following this pre-swim period, the rats were removed and allowed to dry in a heated enclosure before returning to their cages. The rats were then orally administered a dose of either 250 mg/kg body weight or 500 mg/kg body weight HMB.
Twenty-four hours later, rats were submitted to the test swim, in which the rats were again placed in the cylinder for 5 minutes. Test swims were videotaped and subsequently assessed for latency to immobility, which is the point at which no movements were observed and the rat was in the "deadman" position (i.e., head up, tail down, front legs slightly hunched, and rear legs pointed downwards). Rats were orally administered their respective doses of either 250 mg/kg body weight or 500 mg/kg body weight of HMB four hours and one hours prior to the swim test.

In the case of CC(C)(O)CC(=O)O [HMB, 3-hydroxy-3-methylbutanoic acid], the latency to immobility is reported as “significantly increased”.
